Laboratory results taken from US20070059260A1, “Benzyl-1,3-thiazolidine-2,4-dione compounds for promoting and/or inducing and/or stimulating the pigmentation of keratin materials and/or for limiting their depigmentation and/or whitening” (L'OREAL, priority 2005, published 2007).

Tests used:
[1] = target: T1, Type-1 15-PGDH (Homo sapiens, UniProt P15428); assay: Test on type-1 15-PGDH (spectrophotometric, NAD/PGE2, 340 nm); assay type: biochemical; settings: concentration reducing enzymatic activity of 15-PGDH by 50%; 37° C., pH 7.4 Tris buffer, 1.5 mM β-NAD, 50 μM Prostaglandin E2; read-out: IC50dh or % inhibition at 100 μM
T1 construct: made in house
T1 sequence (P15428 1-266): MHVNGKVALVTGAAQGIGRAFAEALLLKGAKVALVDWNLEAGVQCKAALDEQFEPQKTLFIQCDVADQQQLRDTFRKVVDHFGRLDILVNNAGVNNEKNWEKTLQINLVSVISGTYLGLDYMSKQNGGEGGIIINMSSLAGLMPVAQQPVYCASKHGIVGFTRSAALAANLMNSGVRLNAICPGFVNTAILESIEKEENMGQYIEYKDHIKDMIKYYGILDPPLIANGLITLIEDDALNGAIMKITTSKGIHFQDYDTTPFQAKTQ
Method: The enzyme 15-PGDH is obtained as described in FR 02/05067 filed in the name of L'Oreal, as a suspension in a medium adjusted to a concentration of 0.3 mg/mL and then blocked at −80° C. For the purposes of the test, this suspension is thawed and stored in ice.
In parallel, a 100 mM, pH 7.4 Tris buffer containing 0.1 mM of dithiothreitol (D5545, Sigma-Aldrich, L'isle D'Abeau Chesne, BP 701, 38297, Saint Quentin Fallavier), 1.5 mM of β-NAD (N6522, Sigma-Aldrich, L'isle D'Abeau Chesne, BP 701, 38297, Saint Quentin Fallavier), and 50 μM of Prostaglandin E2 (P4172, Sigma-Aldrich, L'isle D'Abeau Chesne, BP 701, 38297, Saint Quentin Fallavier) is prepared.
0.965 ml of this buffer (brought to 37° C. beforehand) is introduced into the cuvette of a spectrophotometer (Perkin-Elmer, Lambda 2) thermostatically maintained at 37° C., the measuring wavelength of which is set at 340 nm. 0.035 mL of enzymatic suspension at 37° C. is introduced into the cuvette concomitantly with the recording (corresponding to an increase in the optical density at 340 nm). The maximum reaction rate is recorded.
The test values (containing the compounds of formula (I)) are compared with the control value (without compound of formula (I)); the results indicated represent either the percentage inhibition of the enzymatic activity of 15-PGDH for a given concentration of compound of formula (I), or the concentration at which the compound of formula (I) reduces the enzymatic activity of 15-PGDH by 50%, namely IC50dh.

Row | Compound | IC50 [1] [nM] | melting point [°C]
1 | O=C1NC(=O)C(Cc2ccccc2Oc2ccccc2)S1 (centres unmarked) [Compound 3] | 2750 | –
2 | CC(C)(C)c1ccc(Oc2cccc(CC3SC(=O)NC3=O)c2)cc1 (centres unmarked) [Compound 5] | 580 | –
3 | O=C1NC(=O)C(Cc2ccccc2Oc2ccccc2)S1 (centres unmarked) [Example 1, 5-(2-phenoxybenzyl)-1,3-thiazolidine-2,4-dione] | – | 84 to 85

Further compounds by falling IC50 [1], results first:

Row | IC50 [1] [nM] | melting point [°C] | Compound
4 | 1210 | – | O=C1NC(=O)C(Cc2ccccc2Oc2ccc(Cl)cc2Cl)S1 (centres unmarked) [Compound 2]
5 | 400 | – | CC(C)(C)c1ccc(Oc2ccccc2CC2SC(=O)NC2=O)cc1 (centres unmarked) [Compound 4, 5-[2-(4-tert-Butylphenoxy)benzyl]-1,3-thiazolidine-2,4-dione]
